Test [1] concerns Spontaneously hypertensive rats. Nature of the test: Antihypertensive action in spontaneously hypertensive rats (tail-cuff). Format: in vivo, rat. Particulars: 1 hour after administration. The method, then: Spontaneously hypertensive rats (male, 12 to 13 weeks old, blood pressure before administration of drug was about 200 mmHg) were used in groups of 3 individuals. After measuring tail arterial pressure of these animals by the tail-cuff method, the animals were orally given 3 to 60 mg/kg of each test compound of this invention as 2 ml of its suspension in gum arabic. Blood pressure measurements were made again one hour after administration of each test compound.

In test [2] the test system is contraction of rabbit aorta strip caused by KCl. In words: Vasodilating action: inhibition of contraction of aorta strip caused by KCl. Conditions: Oryctolagus cuniculus, compound 10^-5 M, KCl (6.0 mM), read-out: Inhibitory percent against contraction (KCl). How it is done:
(§1) A spiral strip of aorta of a rabbit (2 to 3 mm width, about 3 cm length) was allowed to equilibrate by hanging under 2 g force in a Krebs-Henseleitsolution. The solution was saturated with a mixture gas of 97% O2 -3% CO2 which was warmed to 37° C. Inhibitory actions of compounds (10^-5 M) of this invention against contraction of the aorta strip caused by KCl ([…]), norepinephrine (NE) (10^-6 M) or serotonin (5-HT) (10^-6 M), by treating the strip with a compound of this invention 30 minutes before the test (15 minutes in the case of 5-HT), are shown in Table 1 as inhibitory percentage.

Test [3] concerns contraction of rabbit aorta strip caused by norepinephrine (NE). In words: Vasodilating action: inhibition of contraction of aorta strip caused by norepinephrine (NE). Conditions: Oryctolagus cuniculus, compound 10^-5 M, NE 10^-6 M, read-out: Inhibitory percent against contraction (NE). The method, then:
as §1

The subject of test [4] is acute renal failure in rats. In words: Effect on acute renal failure in rats (plasma urea nitrogen, BUN). In kind it is in vivo, rat. Conditions: p.o., control 27 ± 1, *P < 0.05. The method, then:
Male sprague-Dawley rats, 6 week old, were orally given the compunds or tap water at a volume of 5 ml/kg. After one hour, the animals were anesthetized with sodium pentobarbital. The animals were subjected to laparotomy, and the left renal artery was clamped completely for one hour. The clamp was undone, and the incision was closed. The animals were again given orally the compounds or tap water 20 hours later. Further four hours later, the animals were again anesthetized, and the blood was obtained from the abdominal aorta. The plasma was separated for measurement of urea nitrogen (BUN).

The test system of test [5] is contraction of rabbit aorta strip caused by serotonin (5-HT). Nature of the test: Vasodilating action: inhibition of contraction of aorta strip caused by serotonin (5-HT). Conditions: Oryctolagus cuniculus; compound 10^-5 M; 5-HT 10^-6 M; treated 15 minutes before the test; read-out: Inhibitory percent against contraction (5-HT). The method, then:
as §1

Test [6] has as its system ischemia-reperfusion-induced ventricular arrhythmia in rats. In words: Effect on the ischemia-reperfusion-induced ventricular arrhythmia in rats. Format: in vivo, rat. Conditions: p.o., rats with change/rats used; for Cardiac arrest incidence: control 8/18; for Ventricular fibrillation incidence: control 17/18; for Ventricular tachycardia incidence: control 18/18. The method, then: Male Sprague-Dawley rats, 9 to 10 week old, were orally given the compounds or tap water at a volume of 5 ml/kg. After one hour, the animals were anesthetized with sodium pentobarbital (50 mg/kg, by intraperitoneal injection), and they were subjected to thoractomy under artificial respiration, and the left anterior descending coronary artery was occluded for five minutes. The incidences of ventricular tachycardia, ventricular fibrilation and cardiac arrest for ten minutes after reperfusion of the blood were calculated.

The test system of test [7] is caffeine-induced contraction of rabbit aorta strip depending on intracellular Ca^++. Nature of the test: Intracellular Ca++ antagonism: inhibition of caffeine-induced contraction of aorta strip in Ca-free/EGTA solution. Conditions: Oryctolagus cuniculus, caffeine 20 mM, Ca++ 0 mM, EGTA 5 mM, read-out: Inhibitory percent (caffeine contraction); for inhibition at 10 µM: compound 10^-5 M; for inhibition at 1 µM: compound 10^-6 M. The method, then:
A spiral strip of aorta of a rabbit (2 to 3 mm width, aobut 3 cm length) was allowed to equilibrate by hanging under 2 g force in a Krebs-Henseleitsolution. The solution was saturated with a mixture gas of 97% O2 -3% CO2, which was warmed to 37° C. The strip was moved into another Krebs-Henseleit solution containing Ca^++ OmM and EGTA 5 mM. Five minutes later, caffeine (20 mM) was added to the solution. The resulting contraction of the strip was made as the index of the contraction depending on intracellular Ca^++.

Where [8] appears, read: treated 30 minutes before the test.
[9] abbreviates: treating 3 hours before the test (*1).

Each structure is given as a SMILES string. Structures can show the parent of a compound that is named as a salt. Where two headings read alike, the source gives them in different places.

For the molecule `O=C1Nc2cc3c(cc2O[C@H]1CCCN1CCN(c2ccc(F)cc2)CC1)CCCC3` [Example 30, (S)-(-)-2-{3-[4-(4-fluorophenyl)-1-piperazinyl]propyl}-6,7,8,9-tetrahydro-2H-naphtho[2,3-b][1,4]oxazin-3(4H)-one], the “Antihypertensive effect (Δ mm Hg)” value in test [1] (3 mg/kg oral) was determined as 21 mm Hg. Further, the results for the inhibition at 10 µM in test [2] (setting [8]) and in test [3] (setting [8]) were 33% and 73%, respectively.
As to `O=C1Nc2cc3c(cc2OC1CCCN1CCN(c2ccc(F)cc2)CC1)CCCC3` (centres unmarked) [1 (2HCl salt), 2-{3-[4-(4-fluorophenyl)-1-piperazinyl]propyl}-6,7,8,9-tetrahydro-2H-naphtho[2,3-b][1,4]oxazin-3(4H)-one], the figures for the “Antihypertensive effect (Δ mm Hg)” value in test [1] (3 mg/kg oral) and in test [1] (10 mg/kg oral) were 30 mm Hg and 50 mm Hg, respectively. Also, the figures for the inhibition at 10 µM in test [2] (setting [9]), in test [5] and in test [3] (treating 2 hours before the test (*2)) were 82%, 52% and 95%, respectively. Moreover, the BUN in test [4] (1 mg/kg) was 24 ± 0.5 mg/dL; in test [4] (3 mg/kg), 22 ± 2 mg/dL; in test [4] (10 mg/kg) it was 23 ± 0.5 mg/dL. The values for the Cardiac arrest incidence in test [6] (3 mg/kg), in test [6] (10 mg/kg) and in test [6] (20 mg/kg) were 2/9, 4/11 and 0/5, respectively. Moreover, the Ventricular fibrillation incidence is given as 5/9 in test [6] (3 mg/kg, *P < 0.05); 5/11 in test [6] (10 mg/kg, **P < 0.01); 0/5 in test [6] (20 mg/kg, **P < 0.01). In addition, the Ventricular tachycardia incidence is listed as 7/9 in test [6] (3 mg/kg); 7/11 in test [6] (10 mg/kg, **P < 0.01); 2/5 in test [6] (20 mg/kg, **P < 0.01).
As to `Cc1ccc2c(c1)NC(=O)C(CCCN1CCN(c3ccc(F)cc3)CC1)O2` (centres unmarked) [Example 3], the “Antihypertensive effect (Δ mm Hg)” value in test [1] (60 mg/kg oral) is 45 mm Hg. The inhibition at 10 µM was 10% in test [2] (setting [8]), 91% in test [5], 99% in test [3] (setting [8]) and 60% in test [7].
`O=C1Nc2cc(C(F)(F)F)ccc2OC1CCCN1CCN(c2ccc(F)cc2)CC1` (centres unmarked) [Example 27, 2-{3-[4-(4-fluorophenyl)-1-piperazinyl]propyl}-6-trifluoromethyl-2H-1,4-benzoxazin-3(4H)-one]: the inhibition at 10 µM in test [2] (setting [8]) is 36%; in test [3] (setting [8]), 98%.
For the molecule `CCOC(=O)c1ccc2c(c1)OC(CCCN1CCN(c3ccc(F)cc3)CC1)C(=O)N2` (centres unmarked) [Example 8], in test [1] (60 mg/kg oral), the “Antihypertensive effect (Δ mm Hg)” value was 35 mm Hg. Moreover, the inhibition at 10 µM in test [2] (setting [8]) was determined as 33%; in test [3] (setting [8]), 98%.
For the molecule `O=C1Nc2cc3c(cc2OC1CCCCN1CCN(c2ccc(F)cc2)CC1)CCCC3` (centres unmarked) [Example 22], the “Antihypertensive effect (Δ mm Hg)” value in test [1] (3 mg/kg oral) is recorded as 23 mm Hg. For the same molecule, the inhibition at 10 µM in test [2] (setting [8]) was 14%; in test [5] it was 38%; in test [3] (setting [8]) it was 95%.
Regarding `CC(=O)Nc1ccc2c(c1)NC(=O)C(CCCN1CCN(c3ccc(F)cc3)CC1)O2` (centres unmarked) [Example 25, 6-acetamido-2-{3-[4-(4-fluorophenyl)-1-piperazinyl]propyl}-2H-1,4-benzoxazin-3(4H)-one], the “Antihypertensive effect (Δ mm Hg)” value in test [1] (60 mg/kg oral) is 81 mm Hg. For the same molecule, the inhibition at 10 µM in test [2] (setting [8]) turned out to be 9%; in test [3] (setting [8]), 100%.
For the molecule `Cc1ccc2c(c1)NC(=O)C(CCN1CCN(c3ccc(F)cc3)CC1)O2` (centres unmarked) [Example 5], the inhibition at 10 µM worked out at 9% in test [2] (setting [8]), 100% in test [5], 86% in test [3] (setting [8]) and 58% in test [7].
Take `O=C1Nc2cc([N+](=O)[O-])ccc2OC1CCCN1CCN(c2ccc(F)cc2)CC1` (centres unmarked) [Example 6, 2-{3-[4-(4-fluorophenyl)-1-piperazinyl]propyl}-6-nitro-2H-1,4-benzoxazin-3(4H)-one]: the “Antihypertensive effect (Δ mm Hg)” value in test [1] (60 mg/kg oral) is recorded as 43 mm Hg. The inhibition at 10 µM in test [2] (setting [8]) came to 37%; in test [5] it was 81%; in test [3] (setting [8]), 100%.
Consider `O=C1Nc2cc3c(cc2OC1CCCN1CCN(c2ccc(F)cc2)CC1)OCO3` (centres unmarked) [Example 13], for which, in test [1] (3 mg/kg oral), the “Antihypertensive effect (Δ mm Hg)” value is given as 27 mm Hg. Further, the inhibition at 10 µM was found to be 24% in test [2] (setting [8]) and 100% in test [3] (setting [8]).
For the molecule `O=C1Nc2ccccc2OC1CCCN1CCN(c2ccc(F)cc2)CC1` (centres unmarked) [Example 2], the “Antihypertensive effect (Δ mm Hg)” value in test [1] (60 mg/kg oral) is 44 mm Hg. The inhibition at 10 µM in test [2] (setting [9]) came out at 73%; in test [3] (setting [8]), 100%.
`O=C1Nc2cc3c(cc2OC1CCCN1CCN(c2ccc(F)cc2)CC1)CCC3` (centres unmarked) [Example 12]: the “Antihypertensive effect (Δ mm Hg)” value in test [1] (3 mg/kg oral) is recorded as 20 mm Hg. The inhibition at 10 µM in test [2] (setting [8]) stood at 21%; in test [3] (setting [8]), 100%.
Turning to `O=C1Nc2c(ccc3c2CCC3)OC1CCCN1CCN(c2ccc(F)cc2)CC1` (centres unmarked) [Example 28, 5,6-cyclopenteno-2-{3-[4-(4-fluorophenyl)-1-piperazinyl]propyl}-2H-1,4-benzoxazin-3(4H)-one], in test [1] (3 mg/kg oral), the “Antihypertensive effect (Δ mm Hg)” value is 20 mm Hg. The inhibition at 10 µM in test [2] (setting [8]) turned out to be 28%; in test [3] (setting [8]), 100%.
The like results for `O=C1Nc2cc3c(cc2O[C@@H]1CCCN1CCN(c2ccc(F)cc2)CC1)CCCC3` [Example 31, (R)-(+)-2-{3-[4-(4-fluorophenyl)-1-piperazinyl]propyl}-6,7,8,9-tetrahydro-2H-naphtho[2,3-b][1,4]oxazin-3(4H)-one] were, in that order, 21 mm Hg, 30% and 99%.
As for `O=C1Nc2cc3c(cc2OC1CCCN1CCN(c2ccc(O)cc2)CC1)CCCC3` (centres unmarked) [Example 21], the inhibition at 10 µM in test [2] (setting [8]) worked out at 26%; in test [3] (setting [8]), 99%. In addition, the inhibition at 1 µM in test [7] turned out to be 54%.
As to `CN1C(=O)C(CCCN2CCN(c3ccc(F)cc3)CC2)Oc2cc3c(cc21)CCCC3` (centres unmarked) [Example 23, 2-{3-[4-(4-fluorophenyl)-1-piperazinyl]propyl}-6,7,8,9-tetrahydro-4-methyl-2H-naphtho[2,3-b][1,4]oxazin-3(4H)-one], the inhibition at 1 µM in test [7] was 42%.
Turning to `Nc1ccc2c(c1)NC(=O)C(CCCN1CCN(c3ccc(F)cc3)CC1)O2` (centres unmarked) [Example 24, 6-amino-2-{3-[4-(4-fluorophenyl)-1-piperazinyl]propyl}-2H-1,4-benzoxazin-3(4H)-one], in test [1] (60 mg/kg oral), the “Antihypertensive effect (Δ mm Hg)” value is recorded as 60 mm Hg.
Regarding `O=C1Nc2c(ccc3c2CCCC3)OC1CCCN1CCN(c2ccc(F)cc2)CC1` (centres unmarked) [Example 10], the “Antihypertensive effect (Δ mm Hg)” value in test [1] (10 mg/kg oral) stood at 23 mm Hg. The inhibition at 10 µM in test [7] amounted to 59%.
On to `O=C1Nc2cc(Cl)ccc2OC1CCCN1CCN(c2ccc(F)cc2)CC1` (centres unmarked) [Example 7], for which the inhibition at 10 µM in test [2] (setting [8]) is 29%; in test [5], 81%; in test [3] (setting [8]) it was 98%.
For `Cc1ccc(N2CCN(CCCC3Oc4cc5c(cc4NC3=O)CCCC5)CC2)cc1` (centres unmarked) [Example 17], the “Antihypertensive effect (Δ mm Hg)” value in test [1] (3 mg/kg oral) is recorded as 26 mm Hg.
